The source of these data is US20240109881A1, “Heteroaryl Compounds as Ligand Directed Degraders of IRAK4” (Bristol-Myers Squibb Company, priority 2022, published 2024).

The assay deals with T1, IRAK4 (Homo sapiens, UniProt Q9NWZ3).
T1 construct: endogenous in cells; host or cells: THP-1 cells
T1 sequence (Q9NWZ3 1-460): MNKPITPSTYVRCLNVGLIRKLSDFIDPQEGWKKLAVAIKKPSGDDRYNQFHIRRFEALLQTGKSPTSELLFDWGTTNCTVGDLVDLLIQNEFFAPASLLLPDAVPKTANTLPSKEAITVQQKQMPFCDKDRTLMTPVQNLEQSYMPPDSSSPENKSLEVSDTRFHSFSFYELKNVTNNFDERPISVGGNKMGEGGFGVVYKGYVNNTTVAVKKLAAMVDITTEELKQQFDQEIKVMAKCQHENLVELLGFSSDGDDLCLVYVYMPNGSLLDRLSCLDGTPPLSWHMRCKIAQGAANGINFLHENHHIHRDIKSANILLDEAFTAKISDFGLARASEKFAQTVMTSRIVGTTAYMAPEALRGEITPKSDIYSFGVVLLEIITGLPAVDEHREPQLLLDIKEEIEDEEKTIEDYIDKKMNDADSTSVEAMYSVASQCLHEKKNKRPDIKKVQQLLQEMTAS
The assay is described as follows: LVL THP1 HTRF (THP1 Homogeneous Time Resolved Fluorescence). Format: cell-based. To be noted: THP1 cells, 18 h incubation with compound; for DC50: read-out: LVL THP1 HTRF EC50. The gist of the method: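 THP-1 cells in phenol red-free RPMI with 10% FBS were dosed with compound (20 nL in DMSO) for 18 h at 37° C. After 2 h lysis, IRAK4 was detected with anti-IRAK4-d2/anti-IRAK4-K HTRF antibodies for 18 h at room temperature and read at 665/615 nm; a parallel CTG plate was run.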
On the technique in general: Time-resolved FRET reads energy transfer from a long-lived donor to a nearby acceptor.

For `C[C@H](C#N)Nc1cc(-n2ncc3cc(C#N)cnc32)ncc1-n1cc([C@H]2CC[C@H](CCN3CCC(c4ccc(C5(O)CCC(=O)NC5=O)cc4)CC3)CC2)nn1` (stereo partly drawn) [P-339], the “LVL THP1 HTRF YMIN” value is 93.1% and the DC50 was 18.6 nM. For `C[C@H](C#N)Nc1cc(-n2ncc3cc(C#N)cnc32)ncc1-n1cc([C@H]2CC[C@H](CCN3CCC(c4ccc(N5CCC(=O)NC5=O)cc4)CC3)CC2)nn1` [P-340] the same measures were 22.4% and 582 nM. In the same order, the values of `C[C@H](C#N)Nc1cc(-n2ncc3cc(C#N)cnc32)ncc1-n1cc([C@H]2CC[C@H](CCN3CCC(c4ccc(N5CCC(=O)NC5=O)nc4)CC3)CC2)nn1` [P-341] are 81.8% and 2.4 nM.

For `C[C@H](C#N)Nc1cc(-n2ncc3cc(C#N)cnc32)ncc1-n1cc([C@H]2CC[C@H](CCN3CCC(c4ccc(N5CCC(=O)NC5=O)c(Cl)c4)CC3)CC2)nn1` [P-342], the “LVL THP1 HTRF YMIN” value came to 7.1% and the DC50 stood at 22.1 nM. For `C[C@H](C#N)Nc1cc(-n2ncc3cc(C#N)cnc32)ncc1-n1cc([C@H]2CC[C@H](CCN3CCC(c4ccc(NC5CCC(=O)NC5=O)cc4)CC3)CC2)nn1` (stereo partly drawn) [P-343] the same measures were 87.0% and 103 nM. In the same order, the values of `C[C@H](C#N)Nc1cc(-n2ncc3cc(C#N)cnc32)ncc1-n1cc([C@H]2CC[C@H](CCN3CCC(c4cn(C5CCC(=O)NC5=O)nn4)CC3)CC2)nn1` (stereo partly drawn) [P-344] are 8.9% and 91.2 nM. For `C[C@H](C#N)Nc1cc(-n2ncc3cc(C#N)cnc32)ncc1-n1cc([C@H]2CC[C@H](CCN3CCC(c4ccc(N5CCC(=O)NC5=O)cn4)CC3)CC2)nn1` [P-345] the same measures were 87.0% and 1000 nM.

Consider `C[C@H](C#N)Nc1cc(-n2ncc3cc(C#N)cnc32)ncc1-n1cc([C@H]2CC[C@H](CCN3CCC(n4cc(C5CCC(=O)NC5=O)cn4)CC3)CC2)nn1` (stereo partly drawn) [P-346], for which the “LVL THP1 HTRF YMIN” value was 17.5% and the DC50 worked out at 92.8 nM. In the same order, the values of `C[C@H](C#N)Nc1cc(-n2ncc3cc(C#N)cnc32)ncc1-n1cc([C@H]2CC[C@H](CCN3CCC(n4cc(NC5CCC(=O)NC5=O)cn4)CC3)CC2)nn1` (stereo partly drawn) [P-348] are 13.1% and 94.9 nM. In the same order, the values of `C[C@H](C#N)Nc1cc(-n2ncc3cc(C#N)cnc32)ncc1-n1cc([C@H]2CC[C@H](CCN3CCC(n4ccc(C5(F)CCC(=O)NC5=O)cc4=O)CC3)CC2)nn1` (stereo partly drawn) [P-349] are 14.6% and 29.7 nM.

For the compound `C[C@H](C#N)Nc1cc(-n2ncc3cc(C#N)cnc32)ncc1-n1cc([C@H]2CC[C@H](CCN3CCC(n4ccc(C5CCC(=O)NC5=O)cc4=O)CC3)CC2)nn1` (stereo partly drawn) [P-350], the “LVL THP1 HTRF YMIN” value stood at 3.7% and the DC50 was 2.2 nM. In the case of `C[C@H](C#N)Nc1cc(-n2ncc3cc(C#N)cnc32)ncc1-n1cc([C@H]2CC[C@H](CCN3CCC(n4nc(N5CCC(=O)NC5=O)c5ccccc54)CC3)CC2)nn1` [P-351], the “LVL THP1 HTRF YMIN” value was determined as 69.0%. As for `C[C@H](C#N)Nc1cc(-n2ncc3cc(C#N)cnc32)ncc1-n1cc([C@H]2CC[C@H](CCN3CCC(O)(c4ccc(C5CCC(=O)NC5=O)cc4)CC3)CC2)nn1` (stereo partly drawn) [P-352], the “LVL THP1 HTRF YMIN” value was 2.1% and the DC50 worked out at 3.8 nM. For `C[C@H](C#N)Nc1cc(-n2ncc3cc(C#N)cnc32)ncc1-n1cc([C@H]2CC[C@H](CCN3CCC(O)(c4ccc(N5CCC(=O)NC5=O)cc4)CC3)CC2)nn1` [P-353], the “LVL THP1 HTRF YMIN” value came to 88.5% and the DC50 was 1000 nM. Take `C[C@H](C#N)Nc1cc(-n2ncc3cc(C#N)cnc32)ncc1-n1cc([C@H]2CC[C@H](CCN3CCCN(c4ccc(C5CCC(=O)NC5=O)cc4)CC3)CC2)nn1` (stereo partly drawn) [P-354]: the “LVL THP1 HTRF YMIN” value was 4.0% and the DC50 was 13.7 nM.

For the compound `C[C@H](C#N)Nc1cc(-n2ncc3cc(C#N)cnc32)ncc1-n1cc([C@H]2CC[C@H](CCN3CCCN(c4ccc(N5CCC(=O)NC5=O)cc4)CC3)CC2)nn1` [P-355], the “LVL THP1 HTRF YMIN” value was determined as 58.0% and the DC50 was 327 nM. For `C[C@H](C#N)Nc1cc(-n2ncc3cc(C#N)cnc32)ncc1-n1cc([C@H]2CC[C@H](CCN3CCN(c4ccc(N5CCC(=O)NC5=O)cc4)[C@@H](C)C3)CC2)nn1` [P-356] the same measures were 8.6% and 40.6 nM. In the same order, the values of `C[C@H](C#N)Nc1cc(-n2ncc3cc(C#N)cnc32)ncc1-n1cc([C@H]2CC[C@H](CCN3CCN(c4ccc(N5CCC(=O)NC5=O)cn4)[C@@H](C)C3)CC2)nn1` [P-357] are 26.7% and 179 nM. As for `C[C@H](C#N)Nc1cc(-n2ncc3cc(C#N)cnc32)ncc1-n1cc([C@H]2CC[C@H](CCN3CCN(c4ccc(N5CCC(=O)NC5=O)cc4)[C@H](C)C3)CC2)nn1` [P-358], the “LVL THP1 HTRF YMIN” value turned out to be 0.6% and the DC50 worked out at 4.8 nM. In the same order, the values of `C[C@H](C#N)Nc1cc(-n2ncc3cc(C#N)cnc32)ncc1-n1cc([C@H]2CC[C@H](CCN3CCN(c4ccc(N5CCC(=O)NC5=O)cn4)[C@H](C)C3)CC2)nn1` [P-359] are −1.9% and 2.5 nM. For `Cc1cc(N2CCC(=O)NC2=O)ccc1N1CCN(CC[C@H]2CC[C@H](c3cn(-c4cnc(-n5ncc6cc(C#N)cnc65)cc4N[C@H](C)C#N)nn3)CC2)CC1` [P-360] the same measures were 4.5% and 27.6 nM.

As for `C[C@H](C#N)Nc1cc(-n2ncc3cc(C#N)cnc32)ncc1-n1cc([C@H]2CC[C@H](CCN3CCN(c4cccc5c(N6CCC(=O)NC6=O)cncc45)CC3)CC2)nn1` [P-361], the “LVL THP1 HTRF YMIN” value worked out at 1.2% and the DC50 turned out to be 5 nM.

On to `C[C@H](C#N)Nc1cc(-n2ncc3cc(C#N)cnc32)ncc1-n1cc([C@H]2CC[C@H](CCN3CCN(c4cccc5c(N6CCC(=O)NC6=O)nn(C)c45)CC3)CC2)nn1` [P-362], for which the “LVL THP1 HTRF YMIN” value was found to be 14.9% and the DC50 is 238 nM. For `Cc1cc(N2CCN(CC[C@H]3CC[C@H](c4cn(-c5cnc(-n6ncc7cc(C#N)cnc76)cc5N[C@H](C)C#N)nn4)CC3)CC2)ccc1N1CCC(=O)NC1=O` [P-363] the same measures were 5.0% and 7.6 nM. As for `C[C@H](C#N)Nc1cc(-n2ncc3cc(C#N)cnc32)ncc1-n1cc([C@H]2CC[C@H](CCN3CCN(c4ccc(N5CCC(=O)NC5=O)c(Cl)c4)CC3)CC2)nn1` [P-364], the “LVL THP1 HTRF YMIN” value is 3.1% and the DC50 was determined as 1.8 nM.

Take `C[C@H](C#N)Nc1cc(-n2ncc3cc(C#N)cnc32)ncc1-n1cc([C@H]2CC[C@H](CCN3CCN(c4ccc(N5CCC(=O)NC5=O)c(F)c4)CC3)CC2)nn1` [P-365]: the “LVL THP1 HTRF YMIN” value is reported as 2.0% and the DC50 is 2.3 nM. For `C[C@H](C#N)Nc1cc(-n2ncc3cc(C#N)cnc32)ncc1-n1cc([C@H]2CC[C@H](CCN3CCN(c4ccc(N5CCC(=O)NC5=O)cc4)CC3)CC2)nn1` [P-366] the same measures were 2.0% and 10 nM.

Consider `C[C@H](C#N)Nc1cc(-n2ncc3cc(C#N)cnc32)ncc1-n1cc([C@H]2CC[C@H](CCN3CCN(c4ccc(N5CCC(=O)NC5=O)cc4F)CC3)CC2)nn1` [P-367], for which the “LVL THP1 HTRF YMIN” value amounted to 7.9% and the DC50 amounted to 116 nM.

For `C[C@H](C#N)Nc1cc(-n2ncc3cc(C#N)cnc32)ncc1-n1cc([C@H]2CC[C@H](CCN3CCN(c4ccc(NC5CCC(=O)NC5=O)cc4)CC3)CC2)nn1` (stereo partly drawn) [P-368], the “LVL THP1 HTRF YMIN” value was determined as 2.9% and the DC50 was determined as 4.4 nM. In the same order, the values of `C[C@H](C#N)Nc1cc(-n2ncc3cc(C#N)cnc32)ncc1-n1cc([C@H]2CC[C@H](CCN3CCN(c4ccc5c(N6CCC(=O)NC6=O)nn(C)c5c4)CC3)CC2)nn1` [P-369] are 3.0% and 2.2 nM. For `C[C@H](C#N)Nc1cc(-n2ncc3cc(C#N)cnc32)ncc1-n1cc([C@H]2CC[C@H](CCN3CCN(c4ccc(N5CCC(=O)NC5=O)nc4)CC3)CC2)nn1` [P-370] the same measures were 1.2% and 30.5 nM. In the same order, the values of `C[C@H](C#N)Nc1cc(-n2ncc3cc(C#N)cnc32)ncc1-n1cc([C@H]2CC[C@H](CCN3CCN(c4ccc(N5CCC(=O)NC5=O)cn4)CC3)CC2)nn1` [P-371] are 4.1% and 8.7 nM. As to `C[C@H](C#N)Nc1cc(-n2ncc3cc(C#N)cnc32)ncc1-n1cc([C@H]2CC[C@H](CCN3CCN(c4ncc(N5CCC(=O)NC5=O)s4)CC3)CC2)nn1` [P-372], the “LVL THP1 HTRF YMIN” value turned out to be 40.1% and the DC50 worked out at 235 nM. For `C[C@H](C#N)Nc1cc(-n2ncc3cc(Cl)cnc32)ncc1-n1cc([C@H]2CC[C@H](CCN3CCN(c4ccc(C5CCC(=O)NC5=O)cc4)CC3)CC2)nn1` (stereo partly drawn) [P-375] the same measures were 2.5% and 6.5 nM. For `C[C@H](C#N)Nc1nc(-n2ncc3cc(C#N)cnc32)ncc1C(=O)N[C@H]1CC[C@H](CCN2CCN(c3ccc(C4CCC(=O)NC4=O)cc3)CC2)CC1` (stereo partly drawn) [P-376] the same measures were 7.2% and 30.3 nM.
